For test [1], the target named is T1, P2X7 (Homo sapiens (Human), UniProt Q99572). The test can be described thus: P2X7 antagonism in human PBMCs (LPS + Bz-ATP induced IL-1β release, ELISA).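 For all read-outs here: PBMCs from donor human blood, with a further 1.5 h incubation of the cells in the assay.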 In kind it is cell-based. The conditions noted are these: LPS 30 ng/ml, Bz-ATP 0.5 mM; for PBMC 10 μM (% control): compound 10 μM; for PBMC 1 μM (% control): compound 1 μM.
Protocol: Human blood was collected using a blood donor program. PBMCs were isolated from blood using a Ficoll density gradient technique. Briefly, blood was laid on Ficoll solution and centrifuged at RT for 20 minutes at 2000 rpm. The buffy layer (between red blood cells and plasma) was carefully collected by aspiration, washed with PBS and centrifuged again at 1500 rpm for 15 minutes. The resulting cell pellet was washed and plated on 96 well-plates for experiments. For the Mouse/Human Whole Blood experiments, 150 μl of either mouse or human blood was platted on 96 well-plates. Lipopolysaccharide (LPS) (30 ng/ml) was added to each well and incubated for 1 hour. Test compounds were then added and incubated for 30 minutes. The P2X7 agonist, 2′(3′)-O-(4-benzoylbenzoyl) adenosine 5′ triphosphate (Bz-ATP) was then added at a final concentration of 0.5 mM (PBMC) or 1 mM (blood). Cells were incubated for an additional 1.5 hours. At that point, supernatant was collected and stored for IL-1β assay using manufacturer's protocol for enzyme-linked immunosorbent assay (ELISA). Data was expressed as percent control, where control is defined as the difference in IL-1β release in LPS+Bz-ATP samples and LPS only samples. Data was plotted as response (% control) versus concentration to generate IC50 values.
Test [2] has as its target T1, P2X7. Nature of the test: Radioligand binding, tritiated A-804598, human P2X7-1321N1 cell membranes.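 Note: ki obtained from the binding IC50 after correction for tracer concentration and tracer affinity.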 Conditions: 1 hour at 4° C.
Protocol: On the day of the experiment, cell membrane preparations were made according to standard published methods. […] The assay was terminated by filtration (GF/B filters pre-soaked with 0.3% PEI) and washed with washing buffer (Tris-HCl 50 mM). The IC50 generated in the binding assay was corrected for tracer concentration and affinity of the tracer to derive at the affinity (Ki) of the test compounds.
Test [3] concerns the target T1, P2X7. Nature of the test: Ca2+ flux (FLIPR) in 1321N1 cells expressing recombinant human P2X7 channel.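 Note: Calcium-4 dye-loaded cells exposed to compound for 30 min before agonist addition, fluorescence change read 180 s after agonist.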 In kind it is cell-based. The conditions noted are these: 250 μM BzATP. (In general: Calcium flux is commonly read through the fluorescence of an indicator in the cells.)
In another test the target is rat P2X7 (Rattus norvegicus (Rat), UniProt Q64663). Nature of the test: Ca2+ flux (FLIPR) in 1321N1 cells expressing recombinant rat P2X7 channel.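 Note: Calcium-4 dye fluorescence change read 180 s after agonist addition, following 30 min cell preincubation with test compound.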 The test is classed as cell-based. Conditions: 250 μM BzATP.
rat P2X7, sequence (Q64663 whole entry): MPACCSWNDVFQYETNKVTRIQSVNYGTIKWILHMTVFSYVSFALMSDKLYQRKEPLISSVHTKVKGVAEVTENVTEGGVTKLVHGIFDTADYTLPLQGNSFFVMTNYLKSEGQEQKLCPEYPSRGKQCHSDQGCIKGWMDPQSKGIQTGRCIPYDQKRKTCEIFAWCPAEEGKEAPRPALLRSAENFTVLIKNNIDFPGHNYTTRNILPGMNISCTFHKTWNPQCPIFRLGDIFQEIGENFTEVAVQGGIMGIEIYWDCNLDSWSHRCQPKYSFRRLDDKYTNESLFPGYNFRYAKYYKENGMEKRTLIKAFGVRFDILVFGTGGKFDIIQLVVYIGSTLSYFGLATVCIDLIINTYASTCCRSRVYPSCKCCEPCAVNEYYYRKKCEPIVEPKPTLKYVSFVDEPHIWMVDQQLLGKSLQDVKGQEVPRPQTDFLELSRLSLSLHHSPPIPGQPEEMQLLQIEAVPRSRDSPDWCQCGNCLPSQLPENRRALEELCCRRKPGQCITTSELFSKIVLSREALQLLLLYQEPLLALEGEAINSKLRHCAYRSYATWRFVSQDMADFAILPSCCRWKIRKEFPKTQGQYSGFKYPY

As usually defined, the Ki is the dissociation constant of the complex between target and ligand, obtained from inhibition or displacement. Low readings indicate tighter binding, high ones weaker binding. By IC50 is commonly meant the concentration needed to halve the response being measured.

Where only a bound is given, the exact number is not on record here.

T1 sequence (Q99572 whole entry): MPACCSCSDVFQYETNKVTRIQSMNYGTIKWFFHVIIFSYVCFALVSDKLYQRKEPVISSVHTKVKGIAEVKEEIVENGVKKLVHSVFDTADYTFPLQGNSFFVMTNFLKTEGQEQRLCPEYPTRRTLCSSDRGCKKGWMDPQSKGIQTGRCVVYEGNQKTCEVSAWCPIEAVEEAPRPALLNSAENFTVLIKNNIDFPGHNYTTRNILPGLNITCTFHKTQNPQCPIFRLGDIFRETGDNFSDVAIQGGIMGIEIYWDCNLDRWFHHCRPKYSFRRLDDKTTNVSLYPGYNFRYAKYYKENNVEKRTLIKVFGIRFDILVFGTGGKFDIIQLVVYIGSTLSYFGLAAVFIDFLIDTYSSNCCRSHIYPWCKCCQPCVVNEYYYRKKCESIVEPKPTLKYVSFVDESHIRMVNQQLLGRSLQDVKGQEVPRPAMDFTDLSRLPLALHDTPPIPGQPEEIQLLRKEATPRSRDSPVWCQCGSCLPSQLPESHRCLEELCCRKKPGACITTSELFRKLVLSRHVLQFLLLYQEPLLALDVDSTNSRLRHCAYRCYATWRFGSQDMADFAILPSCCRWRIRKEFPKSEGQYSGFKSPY

Consider `CC1c2ncn(-c3ncccc3F)c2CCN1C(=O)c1cccc(C(F)(F)F)c1Cl` (stereo not shown) [Example 21, (2-Chloro-3-(trifluoromethyl)phenyl)(1-(3-fluoropyridin-2-yl)-4-methyl-6,7-dihydro-1H-imidazo[4,5-c]pyridin-5(4H)-yl)methanone], for which, at P2X7 [1], the “PBMC 10 μM (% control)” value is 1.6 % control. Moreover, the affinity at P2X7 [2] corresponds to a Ki of 126 nM. At P2X7 [3], the half-inhibitory concentration (IC50) is 78.5 nM.

Regarding `CC1c2ncn(-c3ccc(F)cn3)c2CCN1C(=O)c1ccc(F)c(Cl)c1Cl` (stereo not shown) [Example 261, (2,3-dichloro-4-fluorophenyl)(1-(5-fluoropyridin-2-yl)-4-methyl-6,7-dihydro-1H-imidazo[4,5-c]pyridin-5(4H)-yl)methanone], the “PBMC 10 μM (% control)” value at P2X7 [1] is −3.1 % control. Further, the Ki at P2X7 [2] came out at 36.3 nM. Also, on P2X7 [3], the IC50 was found to be 19.4 nM.

On to `Cc1c(C(=O)N2CCc3c(ncn3-c3ccc(F)cn3)C2)cccc1C(F)(F)F` [Example 312, (1-(5-fluoropyridin-2-yl)-6,7-dihydro-1H-imidazo[4,5-c]pyridin-5(4H)-yl)(2-methyl-3-(trifluoromethyl)phenyl)methanone], for which the “PBMC 10 μM (% control)” value at P2X7 [1] is recorded as 9.5 % control. In addition, at P2X7 [2], the affinity corresponds to a Ki of 39.8 nM. Further, the IC50 at P2X7 [3] was determined as 157 nM.

Regarding `Cc1c(C(=O)N2CCc3c(ncn3-c3ccc(F)cn3)C2C)cccc1C(F)(F)F` (stereo not shown) [Example 263, (1-(5-fluoropyridin-2-yl)-4-methyl-6,7-dihydro-1H-imidazo[4,5-c]pyridin-5(4H)-yl)(2-methyl-3-(trifluoromethyl)phenyl)methanone], at P2X7 [1], the “PBMC 10 μM (% control)” value is −1.6 % control. The compound also registered an inhibitory constant (Ki) at P2X7 [2] of 55 nM. For the same compound, the IC50 at P2X7 [3] was 16.1 nM.

Turning to `C[C@@H]1Cc2c(nnn2-c2cc(F)ccn2)CN1C(=O)c1cccc(C(F)(F)F)c1Cl` (single isomer, unassigned) [Example 198, (6R*)-5-{[2-Chloro-3-(trifluoromethyl)phenyl]carbonyl}-1-(4-fluoropyridin-2-yl)-6-methyl-4,5,6,7-tetrahydro-1H-[1,2,3]triazolo[4,5-c]pyridine], the “PBMC 10 μM (% control)” value at P2X7 [1] was 1.3 % control. The same compound registered a Ki on P2X7 [2] of 631 nM. Further, at P2X7 [3], the IC50 came to 180 nM.

Turning to `O=C(c1cccc(C(F)(F)F)c1Cl)N1CCc2c(-c3ccc(F)cc3)n[nH]c2C1` [Example 110, 6-{[2-Chloro-3-(trifluoromethyl)phenyl]carbonyl}-3-(4-fluorophenyl)-4,5,6,7-tetrahydro-2H-pyrazolo[3,4-c]pyridine], the “PBMC 1 μM (% control)” value at P2X7 [1] was −15.1 % control. This compound yielded a Ki on P2X7 [2] of 182 nM. The IC50 at P2X7 [3] was 10 nM.

For the compound `CCC1c2ncn(-c3cnccn3)c2CCN1C(=O)c1cccc(C(F)(F)F)c1Cl` (stereo not shown) [Example 15, (2-Chloro-3-(trifluoromethyl)phenyl)(4-ethyl-1-(pyrazin-2-yl)-6,7-dihydro-1H-imidazo[4,5-c]pyridin-5(4H)-yl)methanone], the “PBMC 1 μM (% control)” value on P2X7 [1] stood at 9.1 % control. The same compound gave a Ki on P2X7 [2] of 158 nM. Besides, the IC50 at P2X7 [3] amounted to 87.5 nM.

For the compound `C[C@H]1Cc2c(nnn2-c2cc(F)ccn2)CN1C(=O)c1cccc(C(F)(F)F)c1Cl` (single isomer, unassigned) [Example 199, (6S*)-5-{[2-Chloro-3-(trifluoromethyl)phenyl]carbonyl}-1-(4-fluoropyridin-2-yl)-6-methyl-4,5,6,7-tetrahydro-1H-[1,2,3]triazolo[4,5-c]pyridine], at P2X7 [1], the “PBMC 10 μM (% control)” value is given as 0.0 % control. In addition, on P2X7 [2], the Ki came to 39.8 nM. Moreover, the IC50 on P2X7 [3] amounted to 8.6 nM.

In the case of `O=C(c1cccc(C(F)(F)F)c1Cl)N1CCc2c(ncn2-c2ccccn2)C1` [Example 1, (2-Chloro-3-(trifluoromethyl)phenyl)(1-(pyridin-2-yl)-6,7-dihydro-1H-imidazo[4,5-c]pyridin-5(4H)-yl)methanone], on P2X7 [1], the “PBMC 1 μM (% control)” value is 11.5 % control. Besides, the affinity on P2X7 [2] corresponds to a Ki of 75.9 nM. Moreover, the IC50 on P2X7 [3] amounted to 6.1 nM.

As to `Cc1nc2c(n1-c1ccccc1)CCN(C(=O)c1cccc(C(F)(F)F)c1Cl)C2` [Example 37, (2-Chloro-3-(trifluoromethyl)phenyl)(2-methyl-1-phenyl-6,7-dihydro-1H-imidazo[4,5-c]pyridin-5(4H)-yl)methanone], on P2X7 [1], the “PBMC 10 μM (% control)” value is reported as −9.1 % control. Further, the IC50 came to 99.3 nM at P2X7 [3] and 1530 nM at rat P2X7.

For `COc1ccccc1-n1nnc2c1CCN(C(=O)c1cccc(C(F)(F)F)c1Cl)C2` [Example 125, (2-Chloro-3-(trifluoromethyl)phenyl)(1-(2-methoxyphenyl)-6,7-dihydro-1H-[1,2,3]triazolo[4,5-c]pyridin-5(4H)-yl)methanone], the “PBMC 1 μM (% control)” value on P2X7 [1] is 83.4 % control. Moreover, the IC50 on P2X7 [3] turned out to be 158 nM; at rat P2X7 it was 1260 nM.

Regarding `CC1c2[nH]nc(C(F)(F)F)c2CCN1C(=O)c1cccc(C(F)(F)F)c1Cl` (stereo not shown) [Example 308, (2-chloro-3-(trifluoromethyl)phenyl)(7-methyl-3-(trifluoromethyl)-4,5-dihydro-1H-pyrazolo[3,4-c]pyridin-6(7H)-yl)methanone], on P2X7 [1], the “PBMC 10 μM (% control)” value turned out to be 22.9 % control. For the same compound, the IC50 on P2X7 [3] and at rat P2X7 was above 10000 nM in each case.

With `CC1Cc2c(nnn2-c2ncc(F)cn2)CN1C(=O)c1ccc(Cl)c(F)c1Cl` (stereo not shown) [Example 216, 5-[(2,4-Dichloro-3-fluorophenyl)carbonyl]-1-(5-fluoropyrimidin-2-yl)-6-methyl-4,5,6,7-tetrahydro-1H-[1,2,3]triazolo[4,5-c]pyridine], on P2X7 [1], the “PBMC 10 μM (% control)” value is on record as 0.6 % control. On P2X7 [2], affinity was put at a Ki of 12.6 nM.

Take `Cn1nc(-c2ccc(F)cc2)c2c1CN(C(=O)c1cccc(C(F)(F)F)c1Cl)CC2` [Example 106, 6-{[2-Chloro-3-(trifluoromethyl)phenyl]carbonyl}-3-(4-fluorophenyl)-1-methyl-4,5,6,7-tetrahydro-1H-pyrazolo[3,4-c]pyridine]: the “PBMC 1 μM (% control)” value at P2X7 [1] was found to be 64.4 % control. Further, the figures for the IC50 on P2X7 [3] and at rat P2X7 were 158 nM and 1580 nM, respectively.

On to `C[C@H]1Cc2c(nnn2-c2ncc(F)cn2)CN1C(=O)c1ccc(Cl)c(F)c1Cl` (single isomer, unassigned) [Example 218, (6S*)-5-[(2,4-Dichloro-3-fluorophenyl)carbonyl]-1-(5-fluoropyrimidin-2-yl)-6-methyl-4,5,6,7-tetrahydro-1H-[1,2,3]triazolo[4,5-c]pyridine], for which the “PBMC 10 μM (% control)” value on P2X7 [1] is listed as 6.1 % control. Also, at P2X7 [2], the Ki is 2.5 nM.

In the case of `C[C@H]1Cc2c(nnn2-c2ncc(F)cn2)CN1C(=O)c1cc(F)cc(C(F)(F)F)c1` [Example 307, (S)-(3-fluoro-5-(trifluoromethyl)phenyl)(1-(5-fluoropyrimidin-2-yl)-6-methyl-6,7-dihydro-1H-[1,2,3]triazolo[4,5-c]pyridin-5(4H)-yl)methanone], on P2X7 [1], the “PBMC 10 μM (% control)” value amounted to 2.2 % control. Moreover, the IC50 was above 10000 nM at P2X7 [3] and 10700 nM at rat P2X7.

Take `Cn1nc(-c2cccnc2)c2c1CN(C(=O)c1cccc(C(F)(F)F)c1Cl)CC2` [Example 108, 6-{[2-Chloro-3-(trifluoromethyl)phenyl]carbonyl}-1-methyl-3-pyridin-3-yl-4,5,6,7-tetrahydro-1H-pyrazolo[3,4-c]pyridine]: the “PBMC 1 μM (% control)” value at P2X7 [1] is given as 1.1 % control. Also, the Ki on P2X7 [2] worked out at 100 nM. Moreover, the IC50 at rat P2X7 is 794 nM.

For the compound `CC1c2c(nnn2-c2ccccc2)CCN1C(=O)c1cccc(C(F)(F)F)c1Cl` (stereo not shown) [Example 289, (2-chloro-3-(trifluoromethyl)phenyl)(4-methyl-3-phenyl-6,7-dihydro-3H-[1,2,3]triazolo[4,5-c]pyridin-5(4H)-yl)methanone], the “PBMC 10 μM (% control)” value at P2X7 [1] is given as −27.6 % control. Besides, the results for the IC50 at P2X7 [3] and at rat P2X7 were 1190 nM and 2410 nM, respectively.

In the case of `O=C(c1cccc(C(F)(F)F)c1F)N1CCc2c(ncn2-c2ccc(F)cn2)C1` [Example 314, (2-fluoro-3-(trifluoromethyl)phenyl)(1-(5-fluoropyridin-2-yl)-6,7-dihydro-1H-imidazo[4,5-c]pyridin-5(4H)-yl)methanone], at P2X7 [1], the “PBMC 10 μM (% control)” value is given as 18.7 % control. Besides, the half-maximal inhibitory concentration (IC50) is 2830 nM at P2X7 [3] and above 10000 nM at rat P2X7.

Turning to `O=C(c1cccc(C(F)(F)F)c1Cl)N1CCc2c(nnn2-c2cnccn2)C1c1ccccc1` (stereo not shown) [Example 77, 5-{[2-Chloro-3-(trifluoromethyl)phenyl]carbonyl}-4-phenyl-1-pyrazin-2-yl-4,5,6,7-tetrahydro-1H-[1,2,3]triazolo[4,5-c]pyridine], on P2X7 [1], the “PBMC 1 μM (% control)” value is on record as 31.7 % control. The affinity at P2X7 [2], expressed as Ki, was 398 nM. Also, the IC50 at rat P2X7 came out at 6.3 nM.

In the case of `CC1C=CN=C(n2nnc3c2CCN(C(=O)c2cccc(C(F)(F)F)c2Cl)[C@@H]3C)N1` (single isomer, unassigned) [Example 234, (4R*)-(2-Chloro-3-(trifluoromethyl)phenyl)((4R)-4-methyl-1-(6-methyl-1,6-dihydropyrimidin-2-yl)-6,7-dihydro-1H-[1,2,3]triazolo[4,5-c]pyridin-5(4H)-yl)methanone], the “PBMC 10 μM (% control)” value at P2X7 [1] is −40.9 % control. Moreover, the IC50 at P2X7 [3] was 200 nM; on rat P2X7, 2000 nM.

Regarding `CC1c2ncn(-c3ccc(F)cn3)c2CCN1C(=O)c1ccccc1F` (stereo not shown) [Example 264, (2-fluorophenyl)(1-(5-fluoropyridin-2-yl)-4-methyl-6,7-dihydro-1H-imidazo[4,5-c]pyridin-5(4H)-yl)methanone], the “PBMC 10 μM (% control)” value at P2X7 [1] came out at 89.5 % control. Besides, the concentration for half-maximal inhibition (IC50) on P2X7 [3] and on rat P2X7 was above 10000 nM in each case.

On to `C[C@@H]1c2nnn(-c3cncnc3)c2CCN1C(=O)c1cccc(C(F)(F)F)c1Cl` (single isomer, unassigned) [Example 334, (R*)-(2-chloro-3-(trifluoromethyl)phenyl)(4-methyl-1-(pyrimidin-5-yl)-6,7-dihydro-1H-[1,2,3]triazolo[4,5-c]pyridin-5(4H)-yl)methanone], for which the “PBMC 10 μM (% control)” value at P2X7 [1] is recorded as 101.8 % control. Moreover, the IC50 on P2X7 [3] and at rat P2X7 was above 10000 nM in each case.

For the origin of these results see patent publication US9464084B2, “P2X7 modulators” (Janssen Pharmaceutica NV, priority 2013, dated 2016).
